What all share (type): cell-based
For assay [1], the system named is IL-2 secretion from T cells in human whole blood. Particulars: read-out: WB (IL-2) IC50 (nM, Avg).
Assay [2] deals with hKv1.3 (Homo sapiens, UniProt P22001). As to the kind of experiment: cell-based. Particulars: Kv1.3 (IWQ) IC50 (nM, Avg).
For assay [3], the system named is IFN-g secretion from T cells in human whole blood.
The mark [4] stands for this setting: read-out: WB (IFNg) IC5- (nM, Avg).

The structures appear in SMILES notation. Like-named read-outs stand apart in the source and are kept apart here.

Experimental findings from US20120121591A1 (priority 2009, published 2012) are described below.

hKv1.3, sequence (P22001 whole entry): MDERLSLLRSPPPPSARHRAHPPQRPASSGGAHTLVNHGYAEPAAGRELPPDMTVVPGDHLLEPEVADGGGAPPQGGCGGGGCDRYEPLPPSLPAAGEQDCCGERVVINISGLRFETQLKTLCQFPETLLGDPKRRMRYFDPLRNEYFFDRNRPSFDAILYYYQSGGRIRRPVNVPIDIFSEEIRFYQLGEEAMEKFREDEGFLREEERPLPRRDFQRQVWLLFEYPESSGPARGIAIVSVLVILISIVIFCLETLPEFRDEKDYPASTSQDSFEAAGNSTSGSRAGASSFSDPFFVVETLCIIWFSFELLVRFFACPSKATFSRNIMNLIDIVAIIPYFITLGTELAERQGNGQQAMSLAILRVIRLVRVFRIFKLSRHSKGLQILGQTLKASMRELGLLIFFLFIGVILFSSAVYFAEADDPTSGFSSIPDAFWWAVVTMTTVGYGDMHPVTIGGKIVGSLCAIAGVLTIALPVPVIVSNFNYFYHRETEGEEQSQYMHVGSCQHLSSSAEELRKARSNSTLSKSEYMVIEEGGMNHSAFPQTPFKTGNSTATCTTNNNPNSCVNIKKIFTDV

As for `CC[C@H](C)[C@@H]1NC(=O)[C@@H](NC(=O)[C@H](CO)NC(=O)[C@@H](N)CCCNC(=N)N)CSSC[C@@H](C(=O)O)NC(=O)[C@H]([C@@H](C)O)NC(=O)CNC(=O)[C@@H]2CSSC[C@@H]3NC(=O)[C@H](CCC(N)=O)NC(=O)[C@H](Cc4ccccc4)NC(=O)[C@H](C)NC(=O)[C@H]([C@@H](C)O)NC(=O)[C@H](CSSC[C@H](NC(=O)[C@H](Cc4ccccc4)NC(=O)[C@H](CO)NC(=O)[C@H](CC(C)C)NC(=O)[C@H](CCCNC(=N)N)NC(=O)[C@H](Cc4ccc(O)cc4)NC(=O)[C@H](CCCCN)NC(=O)[C@H](CCSC)NC(=O)[C@H](CCC(=O)O)NC(=O)[C@H](Cc4c[nH]cn4)NC(=O)[C@H](CCCCN)NC3=O)C(=O)N[C@@H](CCCNC(=N)N)C(=O)N[C@@H](CCCCN)C(=O)N[C@@H]([C@@H](C)O)C(=O)N2)NC(=O)[C@H](CCCNC(=N)N)NC(=O)[C@H](CO)NC(=O)[C@H](CCCCN)NC(=O)[C@@H]2CCCN2C(=O)[C@H]([C@@H](C)CC)NC(=O)[C@H]([C@@H](C)O)NC(=O)[C@H](CC(=O)O)NC1=O` [[Glu20]ShK], the values for the IC50 in assay [1], in assay [2] and in assay [3] (setting [4]) were 92 nM, 100 nM and 92 nM, respectively.
Turning to `CC[C@H](C)[C@@H]1NC(=O)[C@@H](NC(=O)[C@H](CO)NC(=O)[C@@H](N)CCCNC(=N)N)CSSC[C@@H](C(=O)O)NC(=O)[C@H]([C@@H](C)O)NC(=O)CNC(=O)[C@@H]2CSSC[C@@H]3NC(=O)[C@H](CCC(N)=O)NC(=O)[C@H](Cc4ccccc4)NC(=O)[C@H](C)NC(=O)[C@H]([C@@H](C)O)NC(=O)[C@H](CSSC[C@H](NC(=O)[C@H](Cc4ccccc4)NC(=O)[C@H](CO)NC(=O)[C@H](CC(C)C)NC(=O)[C@H](CCCNC(=N)N)NC(=O)[C@H](Cc4ccc(O)cc4)NC(=O)[C@H](CCCCN)NC(=O)[C@H](CCC(=O)O)NC(=O)[C@H](CO)NC(=O)[C@H](Cc4c[nH]cn4)NC(=O)[C@H](CCCCN)NC3=O)C(=O)N[C@@H](CCCNC(=N)N)C(=O)N[C@@H](CCCCN)C(=O)N[C@@H]([C@@H](C)O)C(=O)N2)NC(=O)[C@H](CCCNC(=N)N)NC(=O)[C@H](CO)NC(=O)[C@H](CCCCN)NC(=O)[C@@H]2CCCN2C(=O)[C@H]([C@@H](C)CC)NC(=O)[C@H]([C@@H](C)O)NC(=O)[C@H](CC(=O)O)NC1=O` [[Glu21]ShK], the IC50 in assay [1] was found to be 18.5 nM; in assay [2], 3.33 nM; in assay [3] (setting [4]), 28.1 nM.
On the same counts, the results for `CC[C@H](C)[C@@H]1NC(=O)[C@@H](NC(=O)[C@H](CO)NC(=O)[C@@H](N)CCCNC(=N)N)CSSC[C@@H](C(=O)O)NC(=O)[C@H]([C@@H](C)O)NC(=O)CNC(=O)[C@@H]2CSSC[C@@H]3NC(=O)[C@H](CCC(N)=O)NC(=O)[C@H](Cc4ccccc4)NC(=O)[C@H](C)NC(=O)[C@H]([C@@H](C)O)NC(=O)[C@H](CSSC[C@H](NC(=O)[C@H](Cc4ccccc4)NC(=O)[C@H](CO)NC(=O)[C@H](CCC(=O)O)NC(=O)[C@H](CCCNC(=N)N)NC(=O)[C@H](Cc4ccc(O)cc4)NC(=O)[C@H](CCCCN)NC(=O)[C@H](CCSC)NC(=O)[C@H](CO)NC(=O)[C@H](Cc4c[nH]cn4)NC(=O)[C@H](CCCCN)NC3=O)C(=O)N[C@@H](CCCNC(=N)N)C(=O)N[C@@H](CCCCN)C(=O)N[C@@H]([C@@H](C)O)C(=O)N2)NC(=O)[C@H](CCCNC(=N)N)NC(=O)[C@H](CO)NC(=O)[C@H](CCCCN)NC(=O)[C@@H]2CCCN2C(=O)[C@H]([C@@H](C)CC)NC(=O)[C@H]([C@@H](C)O)NC(=O)[C@H](CC(=O)O)NC1=O` [[Glu25]ShK] are 0.494 nM, 0.24 nM and 0.678 nM.
For `CC[C@H](C)[C@@H]1NC(=O)[C@@H](NC(=O)[C@H](CO)NC(=O)[C@@H](N)CCCNC(=N)N)CSSC[C@@H](C(=O)O)NC(=O)[C@H]([C@@H](C)O)NC(=O)CNC(=O)[C@@H]2CSSC[C@@H]3NC(=O)[C@H](CCC(N)=O)NC(=O)[C@H](Cc4ccccc4)NC(=O)[C@H](C)NC(=O)[C@H]([C@@H](C)O)NC(=O)[C@H](CSSC[C@H](NC(=O)[C@H](Cc4ccccc4)NC(=O)[C@H](CCC(=O)O)NC(=O)[C@H](CC(C)C)NC(=O)[C@H](CCCNC(=N)N)NC(=O)[C@H](Cc4ccc(O)cc4)NC(=O)[C@H](CCCCN)NC(=O)[C@H](CCSC)NC(=O)[C@H](CO)NC(=O)[C@H](Cc4c[nH]cn4)NC(=O)[C@H](CCCCN)NC3=O)C(=O)N[C@@H](CCCNC(=N)N)C(=O)N[C@@H](CCCCN)C(=O)N[C@@H]([C@@H](C)O)C(=O)N2)NC(=O)[C@H](CCCNC(=N)N)NC(=O)[C@H](CO)NC(=O)[C@H](CCCCN)NC(=O)[C@@H]2CCCN2C(=O)[C@H]([C@@H](C)CC)NC(=O)[C@H]([C@@H](C)O)NC(=O)[C@H](CC(=O)O)NC1=O` [[Glu26]ShK], in that order: 0.202 nM, 0.317 nM and 0.4 nM.
For `CC[C@H](C)[C@@H]1NC(=O)[C@@H](NC(=O)[C@H](CO)NC(=O)[C@@H](N)CCCNC(=N)N)CSSC[C@@H](C(=O)O)NC(=O)[C@H]([C@@H](C)O)NC(=O)CNC(=O)[C@@H]2CSSC[C@@H]3NC(=O)[C@H](CCC(N)=O)NC(=O)[C@H](Cc4ccccc4)NC(=O)[C@H](C)NC(=O)[C@H]([C@@H](C)O)NC(=O)[C@H](CSSC[C@H](NC(=O)[C@H](Cc4ccccc4)NC(=O)[C@H](CO)NC(=O)[C@H](CC(C)C)NC(=O)[C@H](CCCNC(=N)N)NC(=O)[C@H](Cc4ccc(O)cc4)NC(=O)[C@H](CCCCN)NC(=O)[C@H](CCSC)NC(=O)[C@H](CO)NC(=O)[C@H](Cc4c[nH]cn4)NC(=O)[C@H](CCCCN)NC3=O)C(=O)N[C@@H](CCC(=O)O)C(=O)N[C@@H](CCCCN)C(=O)N[C@@H]([C@@H](C)O)C(=O)N2)NC(=O)[C@H](CCCNC(=N)N)NC(=O)[C@H](CO)NC(=O)[C@H](CCCCN)NC(=O)[C@@H]2CCCN2C(=O)[C@H]([C@@H](C)CC)NC(=O)[C@H]([C@@H](C)O)NC(=O)[C@H](CC(=O)O)NC1=O` [[Glu29]ShK], in that order: 0.73 nM, 0.142 nM and 1.96 nM.
For `CC[C@H](C)[C@@H]1NC(=O)[C@@H](NC(=O)[C@H](CO)NC(=O)[C@@H](N)CCCNC(=N)N)CSSC[C@@H](C(=O)O)NC(=O)[C@H]([C@@H](C)O)NC(=O)CNC(=O)[C@@H]2CSSC[C@@H]3NC(=O)[C@H](CCC(N)=O)NC(=O)[C@H](Cc4ccccc4)NC(=O)[C@H](C)NC(=O)[C@H]([C@@H](C)O)NC(=O)[C@H](CSSC[C@H](NC(=O)[C@H](Cc4ccccc4)NC(=O)[C@H](CO)NC(=O)[C@H](CC(C)C)NC(=O)[C@H](CCCNC(=N)N)NC(=O)[C@H](Cc4ccc(O)cc4)NC(=O)[C@H](CCCCN)NC(=O)[C@H](CCSC)NC(=O)[C@H](CO)NC(=O)[C@H](Cc4c[nH]cn4)NC(=O)[C@H](CCCCN)NC3=O)C(=O)N[C@@H](CCCNC(=N)N)C(=O)N[C@@H](CCC(=O)O)C(=O)N[C@@H]([C@@H](C)O)C(=O)N2)NC(=O)[C@H](CCCNC(=N)N)NC(=O)[C@H](CO)NC(=O)[C@H](CCCCN)NC(=O)[C@@H]2CCCN2C(=O)[C@H]([C@@H](C)CC)NC(=O)[C@H]([C@@H](C)O)NC(=O)[C@H](CC(=O)O)NC1=O` [[Glu30]ShK], the figures for the IC50 in assay [1], in assay [2] and in assay [3] (setting [4]) were 0.019 nM, 0.272 nM and 0.043 nM, respectively.
On the same counts, the results for `CC[C@H](C)[C@@H]1NC(=O)[C@@H](NC(=O)[C@H](CO)NC(=O)[C@@H](N)CCCNC(=N)N)CSSC[C@@H](C(=O)O)NC(=O)[C@H]([C@@H](C)O)NC(=O)CNC(=O)[C@@H]2CSSC[C@@H]3NC(=O)[C@H](CCC(N)=O)NC(=O)[C@H](Cc4ccccc4)NC(=O)[C@H](C)NC(=O)[C@H]([C@@H](C)O)NC(=O)[C@H](CSSC[C@H](NC(=O)[C@H](Cc4ccccc4)NC(=O)[C@H](CO)NC(=O)[C@H](CC(C)C)NC(=O)[C@H](CCCNC(=N)N)NC(=O)[C@H](Cc4ccc(O)cc4)NC(=O)[C@H](CCCCN)NC(=O)[C@H](CCSC)NC(=O)[C@H](CO)NC(=O)[C@H](Cc4c[nH]cn4)NC(=O)[C@H](CCCCN)NC3=O)C(=O)N[C@@H](CCCNC(=N)N)C(=O)N[C@@H](CCCCN)C(=O)N[C@@H](CCC(=O)O)C(=O)N2)NC(=O)[C@H](CCCNC(=N)N)NC(=O)[C@H](CO)NC(=O)[C@H](CCCCN)NC(=O)[C@@H]2CCCN2C(=O)[C@H]([C@@H](C)CC)NC(=O)[C@H]([C@@H](C)O)NC(=O)[C@H](CC(=O)O)NC1=O` [[Glu31]ShK] are 0.242 nM, 0.22 nM and 0.309 nM.
On to `CCCC[C@@H]1NC(=O)[C@H](CO)NC(=O)[C@H](Cc2c[nH]cn2)NC(=O)[C@H](CCCCN)NC(=O)[C@@H]2CSSC[C@@H]3NC(=O)[C@H]([C@@H](C)O)NC(=O)[C@H](CCCCN)NC(=O)[C@H](CCCNC(=N)N)NC(=O)[C@H](CSSC[C@H](NC(=O)[C@H](CCCNC(=N)N)NC(=O)[C@H](CO)NC(=O)[C@H](CCCCN)NC(=O)[C@@H]4CCCN4C(=O)[C@H]([C@@H](C)CC)NC(=O)[C@H]([C@@H](C)O)NC(=O)[C@H](CC(=O)O)NC(=O)[C@H]([C@@H](C)CC)NC(=O)[C@@H](NC(=O)[C@H](CO)NC(=O)[C@@H](N)CCCNC(=N)N)CSSC[C@@H](C(N)=O)NC(=O)[C@H]([C@@H](C)O)NC(=O)CNC3=O)C(=O)N[C@@H]([C@@H](C)O)C(=O)N[C@@H](C)C(=O)N[C@@H](Cc3ccccc3)C(=O)N[C@@H](Cc3c[nH]cn3)C(=O)N2)NC(=O)[C@H](Cc2ccccc2)NC(=O)[C@H](CO)NC(=O)[C@H](CC(C)C)NC(=O)[C@H](CCCNC(=N)N)NC(=O)[C@H](Cc2ccc(O)cc2)NC(=O)[C@H](CCCCN)NC1=O` [[His, Nle21]ShK-amide], for which the IC50 stood at 0.24 nM in assay [1]; 0.139 nM in assay [2]; 0.148 nM in assay [3] (read-out: WB (IFNg) IC50 (nM, Avg)).
